Laboratory results published in US12152048B2, “Nitroxoline prodrug and use thereof” (Jiangsu Yahong Meditech Co., Ltd., priority 2018, dated 2024).
Values after ≈ are worked out from the molar mass of the structure shown.

What was measured:
[1] = Determination of water solubility in phosphate buffer; type: physicochemical; conditions: for solubility at 24 h: thermodynamic from solid; for water solubility compared with nitroxoline: conclusion in words
Summary of the method: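 2 mg solid compound shaken in 500 μL phosphate buffer (pH 1.2, 4.5, 6.8 or 7.4) in a sealed flask, room temperature, 24 h. Suspension vacuum-filtered; dissolved concentration in filtrate quantified by LC/MS/MS.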

[2] = Stability in mouse liver microsome; type: in vitro ADME; conditions: 2 μM, 37° C., 30 minutes
Stability in dog plasma = type: in vitro ADME
Excerpt: (§1) Experimental instruments: thermostatic shaker (SHA-B, Guohua Electric Appliance Co., Ltd.); centrifuge (5810R, Eppendorf); mass spectrometry (AP4000, Applied Biosystems, USA); liquid chromatography (LC-30AD, Shimadzu); sample injector (CTC Analytics AG System, CTC).
(§2) Test animals: plasma of human (batch number: BRH1343165), rat (batch number: RAT336728), mouse (batch number: MSE280000), dog (batch number: BGL99137) and monkey (batch number: PH-Monkey-20180821) are purchased from Shanghai Sixin Biological Technology Co., Ltd.
(§3) Experimental process: the compound of the present invention was dissolved in an organic solvent to obtain a 1 mM working solution. 3 μL of the working solution were added to 597 μL of pre-incubated human or rat plasma and mixed well. 50 μL of the solution were immediately taken out as the 0 minute sample. The remaining sample was incubated at 37° C., and 50 μL of sample were taken out at 15, 30, 60 and 120 minutes respectively. All the samples taken out were immediately processed to precipitate protein, and centrifuged to obtain a supermate for the determination of the compound concentration by LC/MS/MS.

[3] = Stability in monkey plasma; type: in vitro ADME
Excerpt: as §1, §2, §3

[4] = Pharmacokinetics assay in dog (nitroxoline concentration in plasma after single intravenous or oral administration); type: in vivo, beagle dog; conditions: for absorption in beagle dogs compared with nitroxoline: conclusion in words; for AUC0-inf: nitroxoline in beagle dog plasma
Excerpt: Nitroxoline is mainly metabolized by the phase II metabolism in liver with a fast metabolism rate, so it has a short half-life in the body. The present invention modified its structure and 13 compounds of formula (I) were obtained through chemical synthesis. The change of nitroxoline concentration in dog plasma after a single intravenous or oral administration of nitroxoline and the compound of formula (I) was studied to evaluate the pharmacokinetic behavior of nitroxoline and the compound of formula (I) in dog body.
Male beagle dog (Beijing Marshall Biotechnology Co., Ltd., Certificate No.: SCXK (BJ) 2016-0001, Qualified number: 11400600001728), 3 dogs per group, weight 10 to 13 kg, 20 to 22 months old. The dogs were fasted overnight before the administration with free access to water, and fed 4 hours after the administration. The test compound was added to an EP tube, and then added with DMSO, solutol and sterilized water for injection (the volume ratio of the three was 1:2:17, v:v:v). The EP tube was subjected to ultrasound for 20 minutes to make the test compound dissolve well (compound concentration: 0.005 mmol/mL). The dose for intravenous administration was 0.01 mmol/kg, and the dose for oral administration was 0.1 mmol/kg. 0.3 ml of whole blood was collected from jugular vein before the administration (0 hour) and 0.0833, 0.25, 0.5, 1, 2, 4, 6, 8, 10 and 12 hours after the administration (sampling points can be adjusted according to the specific situation) respectively. The blood sample was placed in a centrifuge tube containing EDTA-K2 anticoagulant (Aldrich), and the centrifuge tube was left to stand in ice. The blood sample was centrifuged for 10 minutes at 1530 g within 0.5 hour to obtain all clean plasma. The plasma was placed in another clean centrifuge tube, and stored in a refrigerator at −20° C. for later use.
Solution for standard curve was formulated. 1000 μL of internal standard working solution (containing a solution of verapamil (5 ng/mL, Aldrich), glibenclamide (50 ng/mL, Aldrich) and diclofenac (50 ng/mL, Aldrich) in acetonitrile) was added to 10 μL of the solution for standard curve and sample, and the mixture was shaked by vortex for 5 minutes. The mixture was centrifuged for 10 minutes at 4° C., 3700 rpm. 60 μL of the supernatant were placed in an injection tube, and mixed with 120 μL of water. 10 μL of the solution were injected into the liquid chromatography-mass spectrometry system for determination. The pharmacokinetic parameters were calculated by the WinNonlin V 6.2 non-compartmental model.

[5] = Stability in human plasma
Excerpt: as §1, §2, §3

[6] = Stability in dog liver microsome; conditions: 2 μM, 37° C., 30 minutes
[7] = Stability in rat liver microsome; conditions: 2 μM, 37° C., 30 minutes
Experimental: (§4) Experimental instruments: thermostatic shaker (SHA-B, Guohua Electric Appliance Co., Ltd.); centrifuge (5810R, Eppendorf); mass spectrometry (API4000, Applied Biosystems, USA); liquid chromatography (LC-30AD, Shimadzu); sample injector (CTC Analytics AG System, CTC).
(§5) Experimental process: 25 μg/mL alamethicin (Aldrich), 5 mM magnesium chloride and 0.5 mg/mL microsome (XENOTECH) were added to 100 mM phosphate buffer to obtain a coenzyme-free reaction solution. A portion of the coenzyme-free reaction solution was added with 1 mM reductive nicotinamide adenine dinucleotide phosphate (Aldrich) and 5 mM uridine diphosphate glucuronic acid (Aldrich) to obtain a coenzyme-containing reaction solution. The working solution of the compound of the present invention was added to the two reaction solutions so that the final concentration of the compound was 2 μM. Immediately after mixing well, 50 μL of the solution were taken out as the 0 minute sample, and 50 μL of the remaining sample were taken out after incubating at 37° C. for 30 minutes. All the samples taken out were immediately processed to precipitate protein, and centrifuged to obtain a supernate for the determination of the compound concentration by LC/MS/MS.

[8] = Stability in human liver microsome; conditions: 2 μM, 37° C., 30 minutes
Experimental: as §4, §5

[9] = Stability in liver microsome, overall conclusion (species not stated); type: in vitro ADME; conditions: conclusion in words
[10] = Stability in plasma, overall conclusion (species not stated); conditions: conclusion in words
[11] = Stability in mouse plasma; type: in vitro ADME
Excerpt: as §1, §2, §3

[12] = aqueous buffer, phosphate buffer pH 4.5, room temperature
[13] = aqueous buffer, phosphate buffer pH 6.8, room temperature
[14] = aqueous buffer, phosphate buffer pH 7.4, room temperature
[15] = simulated gastric fluid, phosphate buffer pH 1.2, room temperature
[16] = oral administration 0.1 mmol/kg
[17] = intravenous administration 0.01 mmol/kg

Excerpt for Stability in rat plasma: as §1, §2, §3

Row | Compound | solubility at 24 h [1, 14] [µg/mL] | Percentage of the compound remaining in mouse liver microsome ([2]; with coenzyme) [%] | Percentage of the compound remaining in mouse liver microsome ([2]; without coenzyme) [%] | AUC0-inf [4, 16] [ng*hmL^−1] | Percentage of the compound remaining in plasma (Stability in rat plasma; 0 minute) [%] | Percentage of the compound remaining in plasma (Stability in rat plasma; 37° C., 15 minutes) [%] | Percentage of the compound remaining in plasma (Stability in rat plasma; 37° C., 30 minutes) [%] | Percentage of the compound remaining in plasma (Stability in rat plasma; 37° C., 60 minutes) [%] | Percentage of the compound remaining in plasma (Stability in rat plasma; 37° C., 120 minutes) [%] | Percentage of the compound remaining in plasma ([5]; 0 minute) [%] | Percentage of the compound remaining in plasma ([5]; 37° C., 15 minutes) [%] | Percentage of the compound remaining in plasma ([5]; 37° C., 30 minutes) [%] | Percentage of the compound remaining in plasma ([5]; 37° C., 60 minutes) [%] | Percentage of the compound remaining in plasma ([5]; 37° C., 120 minutes) [%] | Percentage of the compound remaining in dog liver microsome ([6]; with coenzyme) [%] | Percentage of the compound remaining in dog liver microsome ([6]; without coenzyme) [%] | Percentage of the compound remaining in rat liver microsome ([7]; with coenzyme) [%] | Percentage of the compound remaining in rat liver microsome ([7]; without coenzyme) [%] | Percentage of the compound remaining in human liver microsome ([8]; with coenzyme) [%] | Percentage of the compound remaining in human liver microsome ([8]; without coenzyme) [%] | also measured
1 | CCC(CC)C(=O)OCOc1ccc([N+](=O)[O-])c2cccnc12 [Compound 5, (5-nitroquinolin-8-yloxy)methyl 2-ethylbutanoate] | 13 (≈ 40.9 µM) | 0.44 | 0.34 | 1760 | 100.0 | 2.2 | 0.0 | 0.0 | 0.0 | 100.0 | 68.5 | 39.5 | 11.9 | 1.6 | 0.19 | 4.06 | 0.16 | 1.10 | 0.15 | 0.88 | solubility at 24 h [1, 12]: 13.1 µg/mL (≈ 41.1 µM); solubility at 24 h [1, 13]: 11.1 µg/mL (≈ 34.9 µM); solubility at 24 h [1, 15]: 204 µg/mL (≈ 640 µM); Percentage of the compound remaining in plasma (Stability in dog plasma; 0 minute): 100.0%; Percentage of the compound remaining in plasma (Stability in dog plasma; 37° C., 15 minutes): 75.0%; Percentage of the compound remaining in plasma (Stability in dog plasma; 37° C., 30 minutes): 50.6%; Percentage of the compound remaining in plasma (Stability in dog plasma; 37° C., 60 minutes): 27.1%; Percentage of the compound remaining in plasma (Stability in dog plasma; 37° C., 120 minutes): 12.0%; Percentage of the compound remaining in plasma ([3]; 0 minute): 100.0%; Percentage of the compound remaining in plasma ([3]; 37° C., 15 minutes): 0.0%; Percentage of the compound remaining in plasma ([3]; 37° C., 30 minutes): 0.0%; Percentage of the compound remaining in plasma ([3]; 37° C., 60 minutes): 0.0%; Percentage of the compound remaining in plasma ([3]; 37° C., 120 minutes): 0.0%; absorption in beagle dogs compared with nitroxoline [4]: well absorbed
2 | CC(C)C(=O)N1CCC[C@H]1C(=O)OCOc1ccc([N+](=O)[O-])c2cccnc12 [Compound 20, (S)-(5-nitroquinolin-8-yloxy)methyl 1-isopropionylpyrrolidine-2-carboxylate] | 978 (≈ 2530 µM) | 0.09 | 49.07 | 8750 |  |  |  |  |  |  |  |  |  |  | 33.13 | 53.50 | 3.64 | 46.82 | 26.92 | 59.42 | solubility at 24 h [1, 12]: 1050 µg/mL (≈ 2700 µM); solubility at 24 h [1, 13]: 962 µg/mL (≈ 2480 µM); water solubility compared with nitroxoline [1]: increased by several times; solubility at 24 h [1, 15]: 1010 µg/mL (≈ 2610 µM); absorption in beagle dogs compared with nitroxoline [4]: well absorbed; AUC0-inf [4, 17]: 1290 ng*hmL^−1
3 | CCC(CC)C(=O)OC(C)Oc1ccc([N+](=O)[O-])c2cccnc12 (stereo not drawn) [Compound 51, 1-(5-nitroquinolin-8-yloxy)ethyl 2-ethylbutanoate] | 6.62 (≈ 19.9 µM) | 0.02 | 0.09 | 2474 | 100.0 | 70.2 | 67.8 | 48.0 | 35.3 | 100.0 | 97.2 | 98.0 | 94.1 | 84.6 | 0.07 | 0.28 | 0.08 | 2.92 | 0.06 | 0.25 | solubility at 24 h [1, 12]: 7.07 µg/mL (≈ 21.3 µM); solubility at 24 h [1, 13]: 5.69 µg/mL (≈ 17.1 µM); solubility at 24 h [1, 15]: 91.4 µg/mL (≈ 275 µM); Percentage of the compound remaining in plasma (Stability in dog plasma; 0 minute): 100.0%; Percentage of the compound remaining in plasma (Stability in dog plasma; 37° C., 15 minutes): 103.7%; Percentage of the compound remaining in plasma (Stability in dog plasma; 37° C., 30 minutes): 93.7%; Percentage of the compound remaining in plasma (Stability in dog plasma; 37° C., 60 minutes): 89.1%; Percentage of the compound remaining in plasma (Stability in dog plasma; 37° C., 120 minutes): 93.3%; Percentage of the compound remaining in plasma ([3]; 0 minute): 100.0%; Percentage of the compound remaining in plasma ([3]; 37° C., 15 minutes): 96.4%; Percentage of the compound remaining in plasma ([3]; 37° C., 30 minutes): 87.0%; Percentage of the compound remaining in plasma ([3]; 37° C., 60 minutes): 78.1%; Percentage of the compound remaining in plasma ([3]; 37° C., 120 minutes): 69.0%; absorption in beagle dogs compared with nitroxoline [4]: well absorbed; AUC0-inf [4, 17]: 1153 ng*hmL^−1
4 | CN(CC(O)CO)C(=O)OCOc1ccc([N+](=O)[O-])c2cccnc12 (stereo not drawn) [Compound 52, (5-nitroquinolin-8-yloxy)methyl 2,3-dihydroxypropyl(methyl)carbamate] | 687 (≈ 1960 µM) | 95.16 | 105.69 |  | 100.0 | 102.5 | 90.1 | 84.6 | 71.3 | 100.0 | 95.6 | 94.1 | 89.2 | 83.3 | 85.67 | 91.82 | 101.34 | 99.39 | 102.24 | 108.46 | water solubility compared with nitroxoline [1]: increased by several times; stability in microsome [9]: high stability; stability in plasma [10]: high stability
5 | O=[N+]([O-])c1ccc(O)c2ncccc12 [Nitroxoline] | 352 (≈ 1850 µM) |  |  | 4780 | 100.0 | 93.9 | 94.1 | 95.3 | 88.4 | 100.0 | 99.3 | 98.3 | 100.6 | 91.6 |  |  |  |  |  |  | Percentage of the compound remaining in plasma ([11]; 0 minute): 100.0%; Percentage of the compound remaining in plasma ([11]; 37° C., 15 minutes): 95.8%; Percentage of the compound remaining in plasma ([11]; 37° C., 30 minutes): 97.4%; Percentage of the compound remaining in plasma ([11]; 37° C., 60 minutes): 97.4%; Percentage of the compound remaining in plasma ([11]; 37° C., 120 minutes): 93.0%; Percentage of the compound remaining in plasma (Stability in dog plasma; 0 minute): 100.0%; Percentage of the compound remaining in plasma (Stability in dog plasma; 37° C., 15 minutes): 100.8%; Percentage of the compound remaining in plasma (Stability in dog plasma; 37° C., 30 minutes): 101.1%; Percentage of the compound remaining in plasma (Stability in dog plasma; 37° C., 60 minutes): 95.3%; Percentage of the compound remaining in plasma (Stability in dog plasma; 37° C., 120 minutes): 98.4%; Percentage of the compound remaining in plasma ([3]; 0 minute): 100.0%; Percentage of the compound remaining in plasma ([3]; 37° C., 15 minutes): 101.2%; Percentage of the compound remaining in plasma ([3]; 37° C., 30 minutes): 104.0%; Percentage of the compound remaining in plasma ([3]; 37° C., 60 minutes): 101.8%; Percentage of the compound remaining in plasma ([3]; 37° C., 120 minutes): 100.4%; AUC0-inf [4, 17]: 3300 ng*hmL^−1
